Tested on: MV-4-11 cells
Test: Gene expression microarray analysis (Affymetrix PrimeView) and GSEA
Type: cell-based, human
Parameters: RFU PODN (11730768_x_at) / Fold change /veh PODN (11730768_x_at) / RFU LINC00158 (11744669_a_at) / Fold change /veh LINC00158 (11744669_a_at) / RFU DUSP10 (11751237_a_at) / Fold change /veh DUSP10 (11751237_a_at) / RFU ID3 (11757404_x_at) / Fold change /veh ID3 (11757404_x_at) / RFU PLEKHG5 (11737974_s_at) / Fold change /veh PLEKHG5 (11737974_s_at) / RFU LRRC4B (11730491_at) / Fold change /veh LRRC4B (11730491_at) / RFU GIMAP4 (11747438_a_at) / Fold change /veh GIMAP4 (11747438_a_at) / RFU KRT8 (11758183_x_at) / Fold change /veh KRT8 (11758183_x_at) / RFU CNN1 (11734310_a_at) / Fold change /veh CNN1 (11734310_a_at) / RFU VPS37D (11726825_at) / Fold change /veh VPS37D (11726825_at) / RFU C10orf10 (11716522_x_at) / Fold change /veh C10orf10 (11716522_x_at) / RFU KIR2DL2 /// KIR2DL4 /// KIR2DL5A /// KIR2DL5B /// KIR2DS1 /// KIR2DS2 /// KIR2DS3 /// KIR2DS4 /// KIR3DL3 /// KIR3DL3 /// KIR3DS1 (11738374_at) / Fold change /veh KIR2DL2 /// KIR2DL4 /// KIR2DL5A /// KIR2DL5B /// KIR2DS1 /// KIR2DS2 /// KIR2DS3 /// KIR2DS4 /// KIR3DL3 /// KIR3DL3 /// KIR3DS1 (11738374_at) / RFU C1QL1 (11718748_at) / Fold change /veh C1QL1 (11718748_at) / RFU TMPRSS4 (11747572_a_at) / Fold change /veh TMPRSS4 (11747572_a_at) / RFU HAMP (11756126_x_at) / Fold change /veh HAMP (11756126_x_at) / RFU RNFT2 (11725882_a_at) / Fold change /veh RNFT2 (11725882_a_at) / RFU NR4A2 (11747474_a_at) / Fold change /veh NR4A2 (11747474_a_at) / RFU ABCC12 (11746883_a_at) / Fold change /veh ABCC12 (11746883_a_at) / RFU TMEM136 (11760407_x_at) / Fold change /veh TMEM136 (11760407_x_at) / RFU CLDN22 /// WWC2 (11732394_at) / Fold change /veh CLDN22 /// WWC2 (11732394_at) / RFU HLA-DPB1 (11760878_x_at) / Fold change /veh HLA-DPB1 (11760878_x_at) / RFU SPINT1 (11716480_a_at) / Fold change /veh SPINT1 (11716480_a_at) / RFU GAP43 (11754022_s_at) / Fold change /veh GAP43 (11754022_s_at) / RFU A4GNT (11735810_at) / Fold change /veh A4GNT (11735810_at) / RFU PRB3 (11715151_x_at) / Fold change /veh PRB3 (11715151_x_at) / RFU TUBB4B (11761932_at) / Fold change /veh TUBB4B (11761932_at) / RFU CAPN14 (11732068_a_at) / Fold change /veh CAPN14 (11732068_a_at) / RFU TMCC2 (11721928_a_at) / Fold change /veh TMCC2 (11721928_a_at) / RFU IRGQ (11745062_a_at) / Fold change /veh IRGQ (11745062_a_at) / RFU FAM174B (11720279_a_at) / Fold change /veh FAM174B (11720279_a_at) / RFU TMPRSS4 (11748680_a_at) / Fold change /veh TMPRSS4 (11748680_a_at) / RFU FAM212B (11763350_a_at) / Fold change /veh FAM212B (11763350_a_at) / RFU PLEKHG5 (11743358_a_at) / Fold change /veh PLEKHG5 (11743358_a_at) / RFU ZSCAN30 (11745921_a_at) / Fold change /veh ZSCAN30 (11745921_a_at) / RFU CMKLR1 (11741424_a_at) / Fold change /veh CMKLR1 (11741424_a_at) / RFU LOC101060620 /// MAPK8IP1 (11723275_at) / Fold change /veh LOC101060620 /// MAPK8IP1 (11723275_at) / RFU SPTSSB (11747773_x_at) / Fold change /veh SPTSSB (11747773_x_at) / RFU PRSS12 (11739890_at) / Fold change /veh PRSS12 (11739890_at) / RFU BIN1 (11741810_x_at) / Fold change /veh BIN1 (11741810_x_at) / RFU WNT11 (11732464_a_at) / Fold change /veh WNT11 (11732464_a_at) / RFU C10orf10 (11716521_a_at) / Fold change /veh C10orf10 (11716521_a_at) / RFU C5orf56 (11738089_at) / Fold change /veh C5orf56 (11738089_at) / RFU CYB561 (11721691_x_at) / Fold change /veh CYB561 (11721691_x_at) / RFU ANKRD19P (11752326_a_at) / Fold change /veh ANKRD19P (11752326_a_at) / RFU OR2T12 /// OR2T33 /// OR2T8 (11738714_s_at) / Fold change /veh OR2T12 /// OR2T33 /// OR2T8 (11738714_s_at) / RFU VCAN (11748164_a_at) / Fold change /veh VCAN (11748164_a_at) / RFU JSRP1 (11732532_at) / Fold change /veh JSRP1 (11732532_at) / RFU KRTAP10-11 (11738290_x_at) / Fold change /veh KRTAP10-11 (11738290_x_at) / RFU MYO3A (11730013_a_at) / Fold change /veh MYO3A (11730013_a_at) / RFU EBF3 (11725865_a_at) / Fold change /veh EBF3 (11725865_a_at) / RFU CAMK2N1 (11719241_x_at) / Fold change /veh CAMK2N1 (11719241_x_at) / RFU C5orf56 (11738088_a_at) / Fold change /veh C5orf56 (11738088_a_at) / RFU OLFML3 (11715873_a_at) / Fold change /veh OLFML3 (11715873_a_at) / RFU LOC100653217 /// NTM (11731650_a_at) / Fold change /veh LOC100653217 /// NTM (11731650_a_at) / RFU MAPK11 (11762145_a_at) / Fold change /veh MAPK11 (11762145_a_at) / RFU FIZ1 (11724087_x_at) / Fold change /veh FIZ1 (11724087_x_at) / RFU OASL (11726364_x_at) / Fold change /veh OASL (11726364_x_at) / RFU SOX15 (11748057_x_at) / Fold change /veh SOX15 (11748057_x_at) / RFU CD79A (11719716_a_at) / Fold change /veh CD79A (11719716_a_at) / RFU HIST1H1D (11736915_at) / Fold change /veh HIST1H1D (11736915_at) / RFU CASKIN2 (11723855_a_at) / Fold change /veh CASKIN2 (11723855_a_at) / RFU LOC730098 (11760151_x_at) / Fold change /veh LOC730098 (11760151_x_at) / RFU OR4N2 (11742367_at) / Fold change /veh OR4N2 (11742367_at) / RFU PRRT2 (11749266_a_at) / Fold change /veh PRRT2 (11749266_a_at) / RFU SNX32 (11753110_a_at) / Fold change /veh SNX32 (11753110_a_at) / RFU CDHR5 (11726645_a_at) / Fold change /veh CDHR5 (11726645_a_at) / RFU RCAN1 (11760418_a_at) / Fold change /veh RCAN1 (11760418_a_at) / RFU FAM167A (11723789_a_at) / Fold change /veh FAM167A (11723789_a_at) / RFU FAM26E (11764081_at) / Fold change /veh FAM26E (11764081_at) / RFU ISYNA1 (11749810_s_at) / Fold change /veh ISYNA1 (11749810_s_at) / RFU ACY1 (11761880_at) / Fold change /veh ACY1 (11761880_at) / RFU 11764098_at / Fold change /veh 11764098_at / RFU SAMD14 (11745864_x_at) / Fold change /veh SAMD14 (11745864_x_at) / RFU NPB (11741838_a_at) / Fold change /veh NPB (11741838_a_at) / RFU TMPRSS6 (11731388_a_at) / Fold change /veh TMPRSS6 (11731388_a_at) / RFU KRTAP10-2 (11738614_at) / Fold change /veh KRTAP10-2 (11738614_at) / RFU ARHGAP8 /// PRR5-ARHGAP8 (11727945_x_at) / Fold change /veh ARHGAP8 /// PRR5-ARHGAP8 (11727945_x_at) / RFU KRTAP5-7 /// NADSYN1 (11734609_at) / Fold change /veh KRTAP5-7 /// NADSYN1 (11734609_at) / RFU RASL12 (11751679_a_at) / Fold change /veh RASL12 (11751679_a_at) / RFU CDKN2B (11736163_a_at) / Fold change /veh CDKN2B (11736163_a_at) / RFU PRF1 (11729649_at) / Fold change /veh PRF1 (11729649_at) / RFU, ZNF638 /// ZNF638-IT1 / Fold change vs veh, ZNF638 /// ZNF638-IT1 / RFU, PANK3 / Fold change vs veh, PANK3 / RFU, SH3YL1 / Fold change vs veh, SH3YL1 / RFU, ZEB2 / Fold change vs veh, ZEB2 / RFU, NRIP1 / Fold change vs veh, NRIP1 / RFU, PTTG1IP / Fold change vs veh, PTTG1IP / RFU, CAPN2 / Fold change vs veh, CAPN2 / RFU, MED14 / Fold change vs veh, MED14 / RFU, SNORA58 / Fold change vs veh, SNORA58 / RFU, C1orf63 / Fold change vs veh, C1orf63 / RFU, LRRFIP1 / Fold change vs veh, LRRFIP1 / RFU, NDUFAF7 / Fold change vs veh, NDUFAF7 / RFU, SLC12A2 / Fold change vs veh, SLC12A2 / RFU, IBTK / Fold change vs veh, IBTK / RFU, ESF1 / Fold change vs veh, ESF1 / Fold change vs veh, TMEM50B / RFU, TAOK1 / Fold change vs veh, TAOK1 / RFU, ACBD3 / Fold change vs veh, ACBD3 / RFU, TMA16 / Fold change vs veh, TMA16 / RFU, RWDD3 / Fold change vs veh, RWDD3 / RFU, BCAT1 / Fold change vs veh, BCAT1 / RFU, EDEM3 / Fold change vs veh, EDEM3 / RFU, TMEM33 / Fold change vs veh, TMEM33 / RFU, WDR75 / Fold change vs veh, WDR75 / RFU, AHCTF1 / Fold change vs veh, AHCTF1 / RFU, TFRC / Fold change vs veh, TFRC / RFU, ZDHHC17 / Fold change vs veh, ZDHHC17 / RFU, NOM1 / Fold change vs veh, NOM1 / RFU, ARL8B / Fold change vs veh, ARL8B / RFU, ZBTB11 / Fold change vs veh, ZBTB11 / RFU, TAMM41 / Fold change vs veh, TAMM41 / RFU, KIAA1704 /// LOC100996395 / Fold change vs veh, KIAA1704 /// LOC100996395 / RFU, ING1 / Fold change vs veh, ING1 / RFU, TRMT61B / Fold change vs veh, TRMT61B / RFU, FUBP3 / Fold change vs veh, FUBP3 / RFU, TP53 / Fold change vs veh, TP53 / RFU, TNKS2 / Fold change vs veh, TNKS2 / RFU, ZFP14 / Fold change vs veh, ZFP14 / RFU, ACTR2 / Fold change vs veh, ACTR2 / RFU, PPP3R1 / Fold change vs veh, PPP3R1 / RFU, PIK3R1 / Fold change vs veh, PIK3R1 / RFU, HNRNPA1 / Fold change vs veh, HNRNPA1 / RFU, RNF170 / Fold change vs veh, RNF170 / RFU, ZNF28 / Fold change vs veh, ZNF28 / RFU, RNGTT / Fold change vs veh, RNGTT / RFU, OGT / Fold change vs veh, OGT / RFU, BRD1 / Fold change vs veh, BRD1 / RFU, MARS / Fold change vs veh, MARS / RFU, ZNF655 / Fold change vs veh, ZNF655 / RFU, FAHD1 / Fold change vs veh, FAHD1 / RFU, BDP1 / Fold change vs veh, BDP1 / RFU, LRRCC1 / Fold change vs veh, LRRCC1 / RFU, ARID1A / Fold change vs veh, ARID1A / RFU, ZNF146 / Fold change vs veh, ZNF146 / RFU, ZNF330 / Fold change vs veh, ZNF330 / RFU, GPN3 / Fold change vs veh, GPN3 / RFU, C9orf123 / Fold change vs veh, C9orf123 / RFU, N4BP2L2 / Fold change vs veh, N4BP2L2 / RFU, ARFIP1 / Fold change vs veh, ARFIP1 / RFU, FAM179B / Fold change vs veh, FAM179B / RFU, BCL10 / Fold change vs veh, BCL10 / RFU, UHRF1BP1L / Fold change vs veh, UHRF1BP1L / RFU, BET1 / Fold change vs veh, BET1 / RFU, CNOT2 / Fold change vs veh, CNOT2 / RFU, ZNF268 / Fold change vs veh, ZNF268 / Fold change vs veh, ZNF507 / RFU, DGCR2 / Fold change vs veh, DGCR2 / RFU, WDSUB1 / Fold change vs veh, WDSUB1 / Fold change vs veh, HSP90B1 /// MIR3652 / RFU, ADSS / Fold change vs veh, ADSS / RFU, GK / Fold change vs veh, GK / RFU, ZNF148 / Fold change vs veh, ZNF148 / RFU, TAF9 / Fold change vs veh, TAF9 / RFU, SLC1A5 / Fold change vs veh, SLC1A5 / RFU, SLMO2 / Fold change vs veh, SLMO2 / RFU, ABCC4 / Fold change vs veh, ABCC4 / RFU, LOC101060439 /// RAP1B / Fold change vs veh, LOC101060439 /// RAP1B / RFU, RFX7 / Fold change vs veh, RFX7 / RFU, GTPBP10 / Fold change vs veh, GTPBP10 / RFU, CNEP1R1 / Fold change vs veh, CNEP1R1 / RFU, BIVM-ERCC5 /// ERCC5 / Fold change vs veh, BIVM-ERCC5 /// ERCC5 / RFU, ILF3 / Fold change vs veh, ILF3 / RFU 11762660_at / Fold change /veh 11762660_at / RFU VCAN (11757783_s_at) / Fold change /veh VCAN (11757783_s_at) / RFU DDX43 (11728927_at) / Fold change /veh DDX43 (11728927_at) / RFU KRT8 (11758188_x_at) / Fold change /veh KRT8 (11758188_x_at) / RFU NKD1 (11759106_at) / Fold change /veh NKD1 (11759106_at) / RFU SRD5A1 (11742802_a_at) / Fold change /veh SRD5A1 (11742802_a_at) / RFU TPSAB1 /// TPSB2 (11721975_s_at) / Fold change /veh TPSAB1 /// TPSB2 (11721975_s_at) / RFU GSTM3 (11746129_a_at) / Fold change /veh GSTM3 (11746129_a_at) / RFU IL23R (11737362_x_at) / Fold change /veh IL23R (11737362_x_at) / RFU TMEM51 (11727254_a_at) / Fold change /veh TMEM51 (11727254_a_at) / RFU PIWIL2 (11732686_x_at) / Fold change /veh PIWIL2 (11732686_x_at) / RFU ORM1 (11744905_x_at) / Fold change /veh ORM1 (11744905_x_at) / RFU CCDC152 (11743942_at) / Fold change /veh CCDC152 (11743942_at) / RFU ECM1 (11717891_a_at) / Fold change /veh ECM1 (11717891_a_at) / RFU IL23R (11748794_a_at) / Fold change /veh IL23R (11748794_a_at) / RFU TNFAIP8L3 (11732012_x_at) / Fold change /veh TNFAIP8L3 (11732012_x_at) / RFU MBOAT4 (11741988_at) / Fold change /veh MBOAT4 (11741988_at) / RFU 11764193_at / Fold change /veh 11764193_at / RFU TMEM53 (11763286_at) / Fold change /veh TMEM53 (11763286_at) / RFU MAGEB2 (11727129_at) / Fold change /veh MAGEB2 (11727129_at) / RFU TMEM200A (11744735_a_at) / Fold change /veh TMEM200A (11744735_a_at) / RFU CCDC152 (11751479_a_at) / Fold change /veh CCDC152 (11751479_a_at) / RFU FAM211A (11726209_a_at) / Fold change /veh FAM211A (11726209_a_at) / RFU RGS16 (11746705_a_at) / Fold change /veh RGS16 (11746705_a_at) / RFU VCAN (11755009_s_at) / Fold change /veh VCAN (11755009_s_at) / RFU RHOB (11743442_s_at) / Fold change /veh RHOB (11743442_s_at) / RFU RGS16 (11720943_a_at) / Fold change /veh RGS16 (11720943_a_at) / RFU RGS16 (11720944_at) / Fold change /veh RGS16 (11720944_at) / RFU, VPS4B / Fold change vs veh, VPS4B / RFU, CREB1 / Fold change vs veh, CREB1 / RFU, DNAJC13 / Fold change vs veh, DNAJC13 / RFU, GNAQ / Fold change vs veh, GNAQ / RFU, CDK5R1 / Fold change vs veh, CDK5R1 / RFU, ZRANB3 / Fold change vs veh, ZRANB3 / RFU, CUL4A / Fold change vs veh, CUL4A / RFU, CCNY / Fold change vs veh, CCNY / RFU, UFL1 / Fold change vs veh, UFL1 / RFU, COG3 / Fold change vs veh, COG3 / RFU, DIAPH2 / Fold change vs veh, DIAPH2 / RFU, SKA2 / Fold change vs veh, SKA2 / RFU, AFF3 / Fold change vs veh, AFF3 / RFU, LMF1 / Fold change vs veh, LMF1 / RFU, IPO11 / Fold change vs veh, IPO11 / RFU, DFFB / Fold change vs veh, DFFB / RFU, FOXP1 / Fold change vs veh, FOXP1 / RFU, CARD8 / Fold change vs veh, CARD8 / RFU, STRN3 / Fold change vs veh, STRN3 / RFU, ADK / Fold change vs veh, ADK / RFU, RASSF2 / Fold change vs veh, RASSF2 / RFU, WIPF1 / Fold change vs veh, WIPF1 / RFU, LARP1B / Fold change vs veh, LARP1B / RFU, RASA1 / Fold change vs veh, RASA1 / RFU, RB1 / Fold change vs veh, RB1 / RFU, PPFIA1 / Fold change vs veh, PPFIA1 / RFU, MAT2A / Fold change vs veh, MAT2A / RFU, CCT5 / Fold change vs veh, CCT5 / RFU, WDR92 / Fold change vs veh, WDR92 / RFU, CUX1 / Fold change vs veh, CUX1 / RFU, TTC7A / Fold change vs veh, TTC7A / RFU, TMEM135 / Fold change vs veh, TMEM135 / RFU, DEPTOR / Fold change vs veh, DEPTOR / RFU, CPM / Fold change vs veh, CPM / RFU, DNAJB6 / Fold change vs veh, DNAJB6 / RFU, CACNA2D3 / Fold change vs veh, CACNA2D3 / RFU, DTX4 / Fold change vs veh, DTX4 / RFU, TFCP2 / Fold change vs veh, TFCP2 / RFU, GMCL1 /// GMCL1P1 / Fold change vs veh, GMCL1 /// GMCL1P1 / RFU, AEBP2 / Fold change vs veh, AEBP2 / RFU, SNHG1 /// SNORD22 /// SNORD25 /// SNORD26 /// SNORD27 /// SNORD28 /// SNORD29 /// SNORD31 / Fold change vs veh, SNHG1 /// SNORD22 /// SNORD25 /// SNORD26 /// SNORD27 /// SNORD28 /// SNORD29 /// SNORD31 / Fold change (Aza/veh), C12orf56 (ProbeSet 11735607_a_at) / Fold change (ACY-1035/veh), C12orf56 (ProbeSet 11735607_a_at) / Fold change (Aza/veh), FGFR1OP (ProbeSet 11751329_s_at) / Fold change (ACY-1035/veh), FGFR1OP (ProbeSet 11751329_s_at) / Fold change (Aza/veh), VPS36 (ProbeSet 11739960_a_at) / Fold change (ACY-1035/veh), VPS36 (ProbeSet 11739960_a_at) / RFU SYPL1 (11715823_x_at) / Fold change /veh SYPL1 (11715823_x_at) / RFU IGFBP7 (11715501_s_at) / Fold change /veh IGFBP7 (11715501_s_at) / RFU REEP3 (11722064_at) / Fold change /veh REEP3 (11722064_at) / RFU IGLL1 (11728026_x_at) / Fold change /veh IGLL1 (11728026_x_at): dose or concentration left out as unconfirmed
Settings: ProbeSet 11718569_a_at; LIST D

SMILES: Nc1ncn([C@@H]2O[C@H](CO)[C@@H](O)[C@H]2O)c(=O)n1 [azacitidine]
- RFU, WIPF1: 81.62 RFU
